Where two headings read alike, the source gives them in different places. Where a SMILES comes first, the peptide text is derived from it. Bridges are numbered along the chain shown (N, C = ends). [ ]: non-standard residue; d: D form. The star is where a group is joined. Ileψ(thiazoline)Cys = CC[C@H](C)[C@H](N)C1=N[C@H](C(=O)*)CS1; dOrn = NCCC[C@@H](N)C(=O)O

The test system of test [1] is C. perfringens (ATCC 12919). It counts as cell-based.
Test [2] in a line: Poultry study in feed (weight gain). It counts as in vivo, chicks. Conditions: dosage 55 mg/kg in feed; treated feed fed for 8 days. An excerpt:
Various doses of two different functionalized chitosan-arginines were mixed in feed, both originally 84% degree of deacetylation. “10% functionalized” has a MW of 39 kDa, 12% functionalized, % DDA=82 and polydispersity index (PDI) of 1.5. “30% functionalized” has a MW of 27 kDa, 26% functionalized, % DDA=82 and polydispersity index (PDI) of 1.7. Dosing of feed may be irregular due to challenges in mixing extremely small quantities of material uniformly (sprayed on cornmeal from water solution, mixed with feedmeal). Twelve replicate pens of five chicks were used for each treatment. Treated feed was fed for 8 days, and weight gain and feed conversion were examined after 21 days (comparison with day 1). Awt21 is the average weight gain after 21 days and P Diff is the statistical P value between the measured and control.

Test [3] deals with P. multocida (ATCC 11039). To be noted: for Bacitracin (log reduction alone): BAC 32 μg/mL.
Test [4] concerns S. enterica (ATCC 700720).

As to `CN(C)[C@@H]1C(O)=C(C(N)=O)C(=O)[C@@]2(O)C(O)=C3C(=O)c4c(O)cccc4[C@@](C)(O)[C@H]3C[C@@H]12` [Tetracycline], the “Tetracycline (log reduction alone)” value in test [1] (Assay 1, TET 0.05 μg/mL) is recorded as 0.1 log; in test [1] (Assay 2, TET 0.2 μg/mL), 0.1 log.

Consider Penicillin, for which the “Awt21 (average weight gain after 21 days)” value in test [2] is listed as 0.852 kg.

As to `CC[C@H](C)[C@H](N)C1=N[C@H](C(=O)N[C@@H](CC(C)C)C(=O)N[C@H](CCC(=O)O)C(=O)N[C@H](C(=O)N[C@H]2CCCCNC(=O)[C@H](CC(N)=O)NC(=O)[C@@H](CC(=O)O)NC(=O)[C@H](Cc3cnc[nH]3)NC(=O)[C@@H](Cc3ccccc3)NC(=O)[C@H]([C@@H](C)CC)NC(=O)[C@@H](CCCN)NC2=O)[C@@H](C)CC)CS1` [Bacitracin] ({Ileψ(thiazoline)Cys}-L[dE]IK[dOrn]I[dF]H[dD]N; lactam 4-C), the “Bacitracin (log reduction alone)” value in test [3] (Assay 1) is 0 log; in test [3] (Assay 2), 0.2 log; in test [4] (Assay 1, BAC 4 μg/mL), 0.08 log; in test [4] (Assay 1, BAC 8 μg/mL), 0.08 log; in test [4] (Assay 2, BAC 2 μg/mL) it was 0.2 log; in test [4] (Assay 2, BAC 4 μg/mL) it was 0 log. For the same molecule, the bactericidal concentration in test [3] (P. multocida (ATCC 11039)) was over 128 µg/mL.

(Values after patent US9234050B2, “Chitosan derivatives to treat animals or optimize animal health” (priority 2008, dated 2016).)
